# Entries after “also recorded” stand apart in the source; their conditions may differ. Read-outs that look alike come from different tables or passages of the source.
# Key:
# [1] = Binding to hepatocytes, calculated from microsomal binding; type: in vitro ADME; conditions: human, 1 x 10^6 cells/mL, read-out: hepatocyte fraction unbound
# Method: Dialysis was conducted for 6 h and parallel non-dialyzed samples were included to confirm the absence of compound degradation. Binding to hepatocytes (at a cell density of 1 x 10^6 cells/mL) was calculated from the measured microsomal binding (at 1 mg/mL) as described previously ([26]). The fraction unbound (fu) was determined from the ratio of the dialysate to the donor concentration, assuming that the system was at steady state at the end of the dialysis period. For plasma, the data were corrected for the dilution factor to give a binding value for neat plasma according to previously published methods ([27]).
# [2] = In vitro metabolism, liver microsomes; type: in vitro ADME, dog
# Method: Compounds were spiked into microsomal matrix prepared in 0.1 M pH 7.4 phosphate buffer containing magnesium chloride (final concentration of 3.3 mM), equilibrated for 5-10 min at 37°C. The reaction was initiated with the addition of freshly prepared solution of NADPH (final 1.3 mM). Control samples without co-factor were included for comparison. Aliquots of the reaction mixtures were taken periodically over 60 min and quenched with acetonitrile containing internal standards (metolazone and diazepam). Quenched samples were maintained on ice for approximately 20-30 min, centrifuged (for 5 min) and the supernatant was analyzed by LC-MS.
# In vitro intrinsic clearance (CLint, μL/min/mg or μL/min/10^6 cells) values were calculated from the apparent first order degradation rate constant divided by the microsome concentration or the hepatocyte cell number (10^6 viable cells/mL). In vitro CLint values were then divided by the fraction unbound in the in vitro test system (to give CLint,u) and scaled to in vivo values (mL/min/kg) using published physiological scaling factors ([28]). Blood clearance in each species was then calculated using the well-stirred model of hepatic extraction (equation 2) where Q is the hepatic blood flow and fu,blood is calculated from fu,plasma/B:P: [2] PredictedCLblood=Q x fu,blood x CLint,u/Q+fu,blood x CLint,u
# Blood clearance values were converted to plasma clearance by multiplying by the B:P.
# [3] = Compartmental PK modelling and repeat-dose simulation; set-up: species or system mice; conditions: for AUC: read-out: AUC24 ss
# Method: To support pharmacokinetic/pharmacodynamic (PKPD) analysis, data in mice and hamsters were also analyzed by compartmental modeling using Phoenix WinNonlin (version 8.2; Certara, Princeton, NJ). For each dose level, an extravascular dosing, single compartment disposition model was fit to the combined Day 1/Day 5 repeat dose plasma data. The model was parameterized with a single volume term (V/F), and with first order absorption (K01) and elimination (K10) rate constants. Initial values for the parameter estimates were obtained by fitting of the model to the Day 1 data at the lowest dose level only, and the same initial values were used across the dose range. Experimental data used in model fitting were the mean concentration-time profiles and the average dose administered to each group. The weighting scheme (1/Y2 for mouse and 1/Y for hamster) was selected based on goodness of fit of the peak region of the experimental profiles. Parameter estimates obtained through fitting were used to simulate full repeat-dose plasma concentration-time profiles with both once-daily and twice-daily (dosing at […]) administration at each dose level and treatment duration used in the efficacy studies.
# [4] = system: hiPSc-CMs (cardiomyocytes); assay: hiPSc-CM multielectrode (MEA) assay; type: cell-based, human; conditions: 0.37, 1.11, 3.33, 10 and 30 µM
# Method: The hIPSc-CM assay was conducted to identify DNDI-6174-induced changes in field potential duration (FPD ≈ QT interval), total spike amplitude (TSA ≈ QRS interval) and beat rate. Inducible pluripotent stem cell-derived cardiomyocytes (hiPSc-CMs, iCell2, Cellular Dynamics) were maintained in culture medium (50,000 cells/well) for 7 days. Full media changes were done every 48 h. Following baseline recording, and right after the 1 hour compound treatment time (n=8/concentration, 5 concentrations), 1 min recording of activity was taken daily starting on Day 3 through Day 7 using the Maestro multi-electrode Array System (Axion BioSystems; 48 or 96-well plate). 3μM Quinidine was used as a control for hERG and hNaV1.5 block.
# CHO-K1 cells = assay: In vitro micronucleus assay; type: cell-based; conditions: absence or presence of rat liver S9
# Method: The treatment time was 24 h without metabolic activation (rat liver S9) and 3 h with activation. The positive controls were bleomycin sulfate and cyclophosphamide, respectively.
# [5] = mice, 3.125 mg/kg bid, 10 days, simulated
# [6] = mice, 12.5 mg/kg bid, 5 days, simulated
# [7] = mice, 12.5 mg/kg qd, 5 days, simulated
# [8] = mice, 25 mg/kg bid, 5 days, simulated
# [9] = mice, 25 mg/kg qd, 5 days, simulated
# [10] = mouse, plasma, po, 3.125 mg/kg, mice, 3.125 mg/kg bid, 10 days, simulated
# [11] = mouse, plasma, po, 12.5 mg/kg, mice, 12.5 mg/kg bid, 5 days, simulated
# [12] = mouse, plasma, po, 12.5 mg/kg, mice, 12.5 mg/kg qd, 5 days, simulated
# [13] = mouse, plasma, po, 25 mg/kg, mice, 25 mg/kg qd, 5 days, simulated
# [14] = mouse, plasma, po, Mice, 3.6 mg/kg, fitted
# [15] = mouse, plasma, po, Mice, 7.1 mg/kg, fitted
# [16] = mouse, plasma, po, Mice, 12.7 mg/kg, fitted
# [17] = mouse, plasma, po, Mice, 25 mg/kg, fitted
compound,measurement,setting,value
Cc1[nH]c2nc(N)nc(C)c2c1-c1ccc(C#N)c2c1OCO2 [DNDI-6174],fraction unbound,[1],0.63
same,Microsome predicted in vivo CLplasma,[2]; Dog,0.91 mL/min/kg
same,In vitro Microsome CLint,"[2]; Dog, 2 independent experiments",4.8 ± 0.47 µL/min/mg
same,microsomal CLint at 0.5 µM,"[2]; dog, liver microsomes, pH 7.4, Dog, 2 independent experiments, read-out: In vitro Microsome CLint",8.3 ± 0.65 µL/min/mg
same,K01,"[3]; Mice, 3.6 mg/kg, fitted",1.04 h⁻¹
same,K10,"[3]; Mice, 3.6 mg/kg, fitted",0.270 h⁻¹
same,V/F,"[3]; Mice, 3.6 mg/kg, fitted",2.76 L/kg
same,K01,"[3]; Mice, 7.1 mg/kg, fitted",0.833 h⁻¹
same,K10,"[3]; Mice, 7.1 mg/kg, fitted",0.246 h⁻¹
same,V/F,"[3]; Mice, 7.1 mg/kg, fitted",1.95 L/kg
same,K01,"[3]; Mice, 12.7 mg/kg, fitted",0.634 h⁻¹
same,K10,"[3]; Mice, 12.7 mg/kg, fitted",0.213 h⁻¹
same,V/F,"[3]; Mice, 12.7 mg/kg, fitted",1.43 L/kg
same,K01,"[3]; Mice, 25 mg/kg, fitted",3.00 h⁻¹
same,K10,"[3]; Mice, 25 mg/kg, fitted",0.158 h⁻¹
same,V/F,"[3]; Mice, 25 mg/kg, fitted",2.40 L/kg
same,AUC24 ss (unbound),[3]; [5],1010 ng·h/mL
same,Cav ss,[3]; [5],351 ng/mL
same,Cav ss (unbound),[3]; [5],42 ng/mL
same,Cmax (unbound),[3]; [5],98 ng/mL
same,Cmin,[3]; [5],23 ng/mL
same,Cmin (unbound),[3]; [5],3 ng/mL
same,Cum AUC (unbound),[3]; [5],10100 ng·h/mL
same,AUC24 ss,[3]; [6],82000 ng·h/mL
same,AUC24 ss (unbound),[3]; [6],9840 ng·h/mL
same,Cav ss,[3]; [6],3420 ng/mL
same,Cav ss (unbound),[3]; [6],410 ng/mL
same,Cmax (unbound),[3]; [6],780 ng/mL
same,Cmin,[3]; [6],520 ng/mL
same,Cmin (unbound),[3]; [6],62 ng/mL
same,Cum AUC,[3]; [6],410000 ng·h/mL
same,Cum AUC (unbound),[3]; [6],49200 ng·h/mL
same,AUC24 ss (unbound),[3]; [7],4920 ng·h/mL
same,Cav ss,[3]; [7],1710 ng/mL
same,Cav ss (unbound),[3]; [7],205 ng/mL
same,Cmax (unbound),[3]; [7],608 ng/mL
same,Cmin,[3]; [7],80 ng/mL
same,Cmin (unbound),[3]; [7],10 ng/mL
same,Cum AUC (unbound),[3]; [7],24600 ng·h/mL
same,AUC24 ss (unbound),[3]; [8],15800 ng·h/mL
same,Cav ss,[3]; [8],5470 ng/mL
same,Cav ss (unbound),[3]; [8],657 ng/mL
same,Cmax,[3]; [8],11700 ng/mL
same,Cmax (unbound),[3]; [8],1410 ng/mL
same,Cmin,[3]; [8],1140 ng/mL
same,Cmin (unbound),[3]; [8],137 ng/mL
same,Cum AUC,[3]; [8],657000 ng·h/mL
same,Cum AUC (unbound),[3]; [8],78800 ng·h/mL
same,AUC24 ss (unbound),[3]; [9],7880 ng·h/mL
same,Cav ss,[3]; [9],2740 ng/mL
same,Cav ss (unbound),[3]; [9],328 ng/mL
same,Cmax (unbound),[3]; [9],1080 ng/mL
same,Cmin,[3]; [9],251 ng/mL
same,Cmin (unbound),[3]; [9],30 ng/mL
same,Cum AUC (unbound),[3]; [9],39400 ng·h/mL
same,Cmax at 10 days,[3]; [10],820 ng/mL
same,AUC,[3]; [10],8410 ng·h/mL
same,AUC at 10 days,"[3]; mouse, plasma, po, 3.125 mg/kg, mice, 3.125 mg/kg bid, 10 days, simulated, read-out: Cum AUC",84100 ng·h/mL
same,Cmax,"[3]; mouse, plasma, po, 3.6 mg/kg, Mice, 3.6 mg/kg, fitted, read-out: Cmax",813 ng/mL
same,Cmax,"[3]; mouse, plasma, po, 7.1 mg/kg, Mice, 7.1 mg/kg, fitted, read-out: Cmax",2190 ng/mL
same,Cmax at 5 days,[3]; [11],6500 ng/mL
same,AUC,[3]; [11],82000 ng·h/mL
same,AUC at 5 days,"[3]; mouse, plasma, po, 12.5 mg/kg, mice, 12.5 mg/kg bid, 5 days, simulated, read-out: Cum AUC",410000 ng·h/mL
same,Cmax at 5 days,[3]; [12],5070 ng/mL
same,AUC,[3]; [12],41000 ng·h/mL
same,AUC at 5 days,"[3]; mouse, plasma, po, 12.5 mg/kg, mice, 12.5 mg/kg qd, 5 days, simulated, read-out: Cum AUC",205000 ng·h/mL
same,Cmax,"[3]; mouse, plasma, po, 12.7 mg/kg, Mice, 12.7 mg/kg, fitted, read-out: Cmax",5100 ng/mL
same,Cmax,"[3]; mouse, plasma, po, 25 mg/kg, Mice, 25 mg/kg, fitted, read-out: Cmax",8830 ng/mL
same,Cmax at 5 days,"[3]; mouse, plasma, po, 25 mg/kg, mice, 25 mg/kg bid, 5 days, simulated",11700 ng/mL
same,AUC at 5 days,"[3]; mouse, plasma, po, 25 mg/kg, mice, 25 mg/kg bid, 5 days, simulated, read-out: Cum AUC",657000 ng·h/mL
same,Cmax at 5 days,[3]; [13],9030 ng/mL
same,AUC,[3]; [13],65700 ng·h/mL
same,AUC at 5 days,"[3]; mouse, plasma, po, 25 mg/kg, mice, 25 mg/kg qd, 5 days, simulated, read-out: Cum AUC",328000 ng·h/mL
same,AUC(0-inf),[3]; [14],4840 ng·h/mL
same,CL/F,[3]; [14],12.4 mL/min/kg
same,AUC(0-inf),[3]; [15],14800 ng·h/mL
same,CL/F,[3]; [15],7.98 mL/min/kg
same,AUC(0-inf),[3]; [16],41700 ng·h/mL
same,CL/F,[3]; [16],5.08 mL/min/kg
same,AUC(0-inf),[3]; [17],65700 ng·h/mL
same,CL/F,[3]; [17],6.35 mL/min/kg
same,"field potential duration, spike amplitude and beat period, in words",[4],no notable change in the field potential duration; also recorded: No significant change in the field potential
same,"genotoxicity, in words",CHO-K1 cells,not genotoxic

# From paper PMC7615677 (Science translational medicine, 2023)
